Results on 5 compounds are retold here after patent US11304966B2, “Composition comprising HMOs for preventing or reducing nociception” (Glycom A/S, priority 2017, dated 2022).

The target in the assay is T1, GPR35 receptor (Homo sapiens, UniProt Q9HC97).
T1 construct: expressed in transfected cells
Description: PathHunter β-Arrestin assay, activation of GPR35 expressed in cultured cells. It is filed as cell-based. The following applies: for activation of GPR35: up to 10 mM; for EC50: highest concentration tested 10 mM, duplicate. An excerpt:
Six human milk oligosaccharides (LNnT, LNT, 2′-FL, DFL, 6′-SL and 3′-SL) are screened for their ability to activate the GPR35 receptor in the PathHunter β-Arresin assay. This assay monitors the activation of GPR35 expressed in cultured cells, using Enzyme Fragment Complementation with β-galactosidase (β-Gal) as the functional reporter. […] EA is fused to β-Arrestin and PK is fused to GPR35. When the GPR35 is activated and β-Arrestin is recruited to the receptor, PK and EA complementation occurs, restoring β-Gal activity, which is measured using chemiluminescent Detection Reagents.
The GPR35 cell line is expanded from frozen stocks and cultured according to standard procedures. Cells are seeded in a total volume of 20 μl into white walled, 384-well microplates and incubated at 37° C. for the appropriate time prior to testing. All testing is done in duplicate. The HMO samples are held in the form of concentrated stocks in Phosphate Buffered saline (PBS). A 5× dilution compound working intermediate is prepared in PBS. Five μl of the sample is added to the cells and incubated at room temperature for 3 to 5 hours. The assay signal is generated through a single addition of 12.5 μl (50 v/v %) of PathHunter Detection reagent cocktail, followed by one-hour incubation at room temperature. Microplates are read following signal generation with a PerkinElmer Envision™ instrument for chemiluminescent signal detection. Zaprinast (which is known to be an activator of GPR35) is used as positive control. Dose-response is generated by iterative 3× dilutions of the highest concentration tested (10 mM).

T1 sequence (Q9HC97 whole entry): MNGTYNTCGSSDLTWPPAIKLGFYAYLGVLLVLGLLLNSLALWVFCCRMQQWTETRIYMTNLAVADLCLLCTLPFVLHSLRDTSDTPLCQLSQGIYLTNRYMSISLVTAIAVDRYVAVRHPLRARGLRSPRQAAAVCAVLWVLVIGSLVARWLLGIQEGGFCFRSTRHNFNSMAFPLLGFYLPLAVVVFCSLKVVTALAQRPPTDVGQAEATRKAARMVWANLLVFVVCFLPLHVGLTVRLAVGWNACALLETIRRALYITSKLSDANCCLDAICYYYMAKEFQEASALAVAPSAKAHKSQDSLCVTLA
T1 sequence (P32121 whole entry partner): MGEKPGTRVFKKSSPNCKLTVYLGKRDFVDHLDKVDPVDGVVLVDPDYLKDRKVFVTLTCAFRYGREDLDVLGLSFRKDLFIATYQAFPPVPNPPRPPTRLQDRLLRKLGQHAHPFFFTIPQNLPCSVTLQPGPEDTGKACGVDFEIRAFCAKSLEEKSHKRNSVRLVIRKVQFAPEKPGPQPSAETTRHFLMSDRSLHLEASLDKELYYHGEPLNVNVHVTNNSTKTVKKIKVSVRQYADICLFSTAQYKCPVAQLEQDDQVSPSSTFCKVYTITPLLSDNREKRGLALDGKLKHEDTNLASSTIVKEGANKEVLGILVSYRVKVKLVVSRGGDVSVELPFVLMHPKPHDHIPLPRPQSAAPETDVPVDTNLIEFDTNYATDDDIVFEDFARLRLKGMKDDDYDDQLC

In the case of `CC(=O)N[C@H]1[C@H](O[C@H]2[C@@H](O)[C@@H](CO)O[C@@H](O[C@H]3[C@H](O)[C@@H](O)C(O)O[C@@H]3CO)[C@@H]2O)O[C@H](CO)[C@@H](O[C@@H]2O[C@H](CO)[C@H](O)[C@H](O)[C@H]2O)[C@@H]1O` (mixture of isomers) [LNnT, lacto-N-neotetraose], the “activation of GPR35” value is “No activation”.

As for `CC(=O)N[C@H]1[C@H]([C@H](O)[C@H](O)CO)O[C@@](O[C@H]2[C@@H](O)[C@@H](CO)O[C@@H](O[C@H]3[C@H](O)[C@@H](O)C(O)O[C@@H]3CO)[C@@H]2O)(C(=O)O)C[C@@H]1O` (some centres unmarked) [3′-SL, 3′-sialyllactose], the “activation of GPR35” value is “No activation”.

As to `CC(=O)N[C@H]1[C@H]([C@H](O)[C@H](O)CO)O[C@@](OC[C@H]2O[C@@H](O[C@H]3[C@H](O)[C@@H](O)[C@H](O)O[C@@H]3CO)[C@H](O)[C@@H](O)[C@H]2O)(C(=O)O)C[C@@H]1O` [6′-SL, 6′-sialyllactose], it took 6.5 mM to reach a half-maximal effect (EC50).

As for `C[C@@H]1O[C@@H](O[C@H]2[C@H](O[C@H]3[C@H](O[C@@H]4O[C@@H](C)[C@@H](O)[C@@H](O)[C@@H]4O)[C@@H](O)C(O)O[C@@H]3CO)O[C@H](CO)[C@H](O)[C@@H]2O)[C@@H](O)[C@H](O)[C@@H]1O` (some centres unmarked) [DFL, difucosyllactose], the “activation of GPR35” value was “No activation”.

Compound `CC(=O)N[C@H]1[C@H](O[C@H]2[C@@H](O)[C@@H](CO)O[C@@H](O[C@H]3[C@H](O)[C@@H](O)C(O)O[C@@H]3CO)[C@@H]2O)O[C@H](CO)[C@@H](O)[C@@H]1O[C@@H]1O[C@H](CO)[C@H](O)[C@H](O)[C@H]1O` (some centres unmarked) [LNT, lacto-N-tetraose] had an EC50 of 4.5 mM.

What is called EC50 is the concentration giving half of the maximal effect. Read a high EC50 as a less potent agent.
